Data published in patent US10189803B2, “Synthesis of therapeutic and diagnostic drugs centered on regioselective and stereoselective ring opening of aziridinium ions” (ILLINOIS INSTITUTE OF TECHNOLOGY, priority 2008, dated 2019).

System: HT29 cancer cells
Experiment: Fluorescence imaging of cellular uptake in live HT29 cancer cells
Type: cell-based, Human
Conditions: 50 μM, 0.5 h incubation
Text: In order to visualize cellular uptake using fluorescence imaging, C-NE3TA was conjugated with an organic fluorescent moiety, NBD to produce C-NE3TA-NBD (FIG. 40). Thus, the starting material 15 was reacted with NBD-Cl to provide the fluorescent conjugate 16. t-Butyl groups in Compound 16 were removed by treating 4M HCl in 1,4-dioxane. C-NE3TA has the respective excitation and emission wavelength of 446 nm and 512 nm. Fluorescence and phase contrast images of control HT29 cells or HT29 cells incubated with C-NE3TA-NBD (50 μM) were obtained using a confocal microscope with a band-pass filter set at 436/20 nm (excitation) and 535/30 nm (emission). […] It was noted that the control HT29 colon cancer cells also emit auto-fluorescence at the wavelength of excitation. While polyaminocarboxylate NE3TA is too hydrophilic to enter the cancer cells, C-NE3TA-NBD containing liphophilic moieties, both benzyl and NBD group is proposed to penetrate into the cells resulting in the punctuate present in the cancer cells.
Fluorescence Imaging of live cancer cells. HT29 cancer cells were plated in glass cover slips which placed in 6-well plates, and were incubated with growth media in a humidified atmosphere with 5% CO2 at 37° C. overnight. Control cells or cells containing C-NE3TA-NBD (50 μM, H2O) were incubated with media for 0.5 h under 5% CO2 at 37° C. […]
Fluorescence imaging of live cancer cells. […]

## O=C(O)CNC(Cc1ccc(Nc2ccc([N+](=O)[O-])c3nonc23)cc1)CN1CCN(CC(=O)O)CCN(CC(=O)O)CC1 (stereo not shown) [C-NE3TA-NBD, (4-Carboxymethyl-7-{2-(carboxymethyl-amino)-3-[4-(7-nitro-benzo[1,2,5]oxadiazol-4-ylamino)-phenyl]-propyl}-[1,4,7]triazonan-1-yl)-acetic acid]
  cellular uptake by fluorescence imaging (in words): does accumulate in the HT29 cancer cells
